This note sets out measurements from article PMC4937660, “In vitro evaluation of the effects of 4-aminopyridine on cytochrome P450 enzymes” (Journal of Drug Assessment, 2013).

The test deals with T1, CYP3A4/5.
T1 construct: native enzymes in pooled human liver microsomes (16 samples, XenoTech); read out by testosterone 6beta-hydroxylation and midazolam 1'-hydroxylation
Put plainly: testosterone 6beta-hydroxylation in human liver microsomes, HPLC-MS/MS. The test is classed as biochemical. As to conditions: direct inhibition, no pre-incubation; testosterone 100 μM (about Km); NADPH-generating system, pH 7.4, 37 °C; read-out: Direct inhibition; 0-min Pre-incubation / IC50. The text has this: testosterone 6beta-hydroxylation in human liver microsomes, HPLC-MS/MS on CYP3A4/5
On the technique in general: Microsomes from liver hold many membrane-bound enzymes, among them those of drug oxidation.

Take `Nc1ccncc1` [4-AP]: the IC50 was above 30 µM.
